Assay results: ChEMBL document CHEMBL2413072, “Synthesis and in vitro anticancer studies of novel C-2 arylidene congeners of lantadenes” (2013)

What was measured:
Type in all cases: functional
KM12 [1] = assay: Growth inhibition of human KM12 cells by sulforhodamine B assay
HCT-15 [2] = assay: Growth inhibition of human HCT15 cells by sulforhodamine B assay
COLO 205 [3] = assay: Growth inhibition of human COLO205 cells by sulforhodamine B assay
NCI-H460 = assay: Growth inhibition of human NCI-H460 cells by sulforhodamine B assay
MOLT-4 = assay: Growth inhibition of human MOLT4 cells by sulforhodamine B assay
IGROV-1 [4] = assay: Growth inhibition of human IGROV1 cells assessed as cell growth at 10^-8 M by sulforhodamine B assay; settings: read-out: Activity
MDA-MB-435 = assay: Growth inhibition of human MDA-MB-435 cells assessed as cell growth at 10^-8 M by sulforhodamine B assay; settings: read-out: Activity
HCT-15 [5] = assay: Growth inhibition of human HCT15 cells assessed as cell growth at 10^-8 M by sulforhodamine B assay; settings: read-out: Activity
COLO 205 [6] = assay: Growth inhibition of human COLO205 cells assessed as cell growth at 10^-8 M by sulforhodamine B assay; settings: read-out: Activity
RPMI-8226 = assay: Growth inhibition of human RPMI8226 cells assessed as cell growth at 10^-8 M by sulforhodamine B assay; settings: read-out: Activity
MDA-MB-231 [7] = assay: Growth inhibition of human MDA-MB-231 cells by sulforhodamine B assay
MCF7 = assay: Growth inhibition of human MCF7 cells by sulforhodamine B assay
A498 = assay: Growth inhibition of human A498 cells by sulforhodamine B assay
OVCAR-3 = assay: Growth inhibition of human OVCAR3 cells by sulforhodamine B assay
M14 = assay: Growth inhibition of human M14 cells by sulforhodamine B assay
Malme-3M [8] = assay: Growth inhibition of human MALME-3M cells by sulforhodamine B assay
T47D = assay: Growth inhibition of human T47D cells assessed as cell growth at 10^-4 M by sulforhodamine B assay; settings: read-out: Activity
[9] = Growth inhibition of human Hs 578T cells assessed as cell growth at 10^-4 M by sulforhodamine B assay; settings: read-out: Activity
UO-31 [10] = assay: Growth inhibition of human UO31 cells assessed as cell growth at 10^-4 M by sulforhodamine B assay; settings: read-out: Activity
OVCAR-4 = assay: Growth inhibition of human OVCAR4 cells assessed as cell growth at 10^-4 M by sulforhodamine B assay; settings: read-out: Activity
IGROV-1 [11] = assay: Growth inhibition of human IGROV1 cells assessed as cell growth at 10^-4 M by sulforhodamine B assay; settings: read-out: Activity
SNB-75 = assay: Growth inhibition of human SNB75 cells assessed as cell growth at 10^-4 M by sulforhodamine B assay; settings: read-out: Activity
SNB-19 = assay: Growth inhibition of human SNB19 cells assessed as cell growth at 10^-4 M by sulforhodamine B assay; settings: read-out: Activity
SF-539 = assay: Growth inhibition of human SF539 cells assessed as cell growth at 10^-4 M by sulforhodamine B assay; settings: read-out: Activity
KM12 [12] = assay: Growth inhibition of human KM12 cells assessed as cell growth at 10^-4 M by sulforhodamine B assay; settings: read-out: Activity
MDA-MB-231 [13] = assay: Growth inhibition of human MDA-MB-231 cells assessed as cell growth at 10^-6 M by sulforhodamine B assay; settings: read-out: Activity
UO-31 [14] = assay: Growth inhibition of human UO31 cells assessed as cell growth at 10^-6 M by sulforhodamine B assay; settings: read-out: Activity
TK-10 = assay: Growth inhibition of human TK10 cells assessed as cell growth at 10^-6 M by sulforhodamine B assay; settings: read-out: Activity
786-0 = assay: Growth inhibition of human 786-0 cells assessed as cell growth at 10^-6 M by sulforhodamine B assay; settings: read-out: Activity
IGROV-1 [15] = assay: Growth inhibition of human IGROV1 cells assessed as cell growth at 10^-6 M by sulforhodamine B assay; settings: read-out: Activity
UACC-62 = assay: Growth inhibition of human UACC62 cells assessed as cell growth at 10^-6 M by sulforhodamine B assay; settings: read-out: Activity
Malme-3M [16] = assay: Growth inhibition of human MALME-3M cells assessed as cell growth at 10^-6 M by sulforhodamine B assay; settings: read-out: Activity
SR = assay: Growth inhibition of human SR cells assessed as cell growth at 10^-6 M by sulforhodamine B assay; settings: read-out: Activity
BT-549 = assay: Growth inhibition of human BT549 cells assessed as cell growth at 10^-7 M by sulforhodamine B assay; settings: read-out: Activity
RXF 393 = assay: Growth inhibition of human RXF393 cells assessed as cell growth at 10^-7 M by sulforhodamine B assay; settings: read-out: Activity
OVCAR-8 = assay: Growth inhibition of human OVCAR8 cells assessed as cell growth at 10^-7 M by sulforhodamine B assay; settings: read-out: Activity
OVCAR-5 = assay: Growth inhibition of human OVCAR5 cells assessed as cell growth at 10^-7 M by sulforhodamine B assay; settings: read-out: Activity
PC-3 = assay: Growth inhibition of human PC3 cells assessed as cell growth at 10^-8 M by sulforhodamine B assay; settings: read-out: Activity
[17] = read-out: LC50 (the source's name)
[18] = read-out: pLC50 (the source's name) (converted)

CC(C)=CC(=O)O[C@@H]1CC(C)(C)C[C@H]2C3=CC[C@@H]4[C@@]5(C)CCC(=O)C(C)(C)[C@@H]5CC[C@@]4(C)[C@]3(C)CC[C@@]12C(=O)O
GI50 (KM12 [1]; read-out: GI50): 879 nM
LC50 (50% net cell kill) (KM12 [1]; read-out: LC50): 59.3 µM
TGI (KM12 [1]; read-out: TGI): 15.3 µM
GI50 (KM12 [1]; read-out: pGI50 (converted)): 871 nM
LC50 (50% net cell kill) (KM12 [1]; read-out: pLC50 (converted)): 58.9 µM
TGI (KM12 [1]; read-out: pTGI (converted)): 15.5 µM
GI50 (HCT-15 [2]; read-out: GI50): 1290 nM
LC50 (50% lethal concentration) (HCT-15 [2]; read-out: LC50): > 100 µM
TGI (HCT-15 [2]; read-out: TGI): 15.6 µM
GI50 (HCT-15 [2]; read-out: pGI50 (converted)): 1290 nM
LC50 (50% lethal concentration) (HCT-15 [2]; read-out: pLC50 (converted)): > 100 µM
TGI (HCT-15 [2]; read-out: pTGI (converted)): 15.5 µM
GI50 (COLO 205 [3]; read-out: GI50): 3.61 µM
LC50 (COLO 205 [3]; read-out: LC50): 49.1 µM
TGI (COLO 205 [3]; read-out: TGI): 12.3 µM
GI50 (COLO 205 [3]; read-out: pGI50 (converted)): 3.63 µM
LC50 (COLO 205 [3]; read-out: pLC50 (converted)): 49 µM
TGI (COLO 205 [3]; read-out: pTGI (converted)): 12.3 µM
GI50 (NCI-H460; read-out: GI50): 2210 nM
LC50 (NCI-H460; read-out: LC50): 85.5 µM
TGI (NCI-H460; read-out: TGI): 14.6 µM
GI50 (NCI-H460; read-out: pGI50 (converted)): 2190 nM
LC50 (NCI-H460; read-out: pLC50 (converted)): 85.1 µM
TGI (NCI-H460; read-out: pTGI (converted)): 14.5 µM
GI50 (MOLT-4; read-out: GI50): 2920 nM
CC50 (MOLT-4; [17]): > 100 µM
TGI (MOLT-4; read-out: TGI): 20.6 µM
GI50 (MOLT-4; read-out: pGI50 (converted)): 2950 nM
CC50 (MOLT-4; [18]): > 100 µM
TGI (MOLT-4; read-out: pTGI (converted)): 20.4 µM
growth at 0.01 µM (IGROV-1 [4]): 103%
growth at 0.01 µM (MDA-MB-435): 99%
growth at 0.01 µM (HCT-15 [5]): 93%
growth at 0.01 µM (COLO 205 [6]): 106%
growth at 0.01 µM (RPMI-8226): 101%
GI50 (MDA-MB-231 [7]; read-out: GI50): 4.03 µM
CC50 (MDA-MB-231 [7]; [17]): 71.1 µM
TGI (MDA-MB-231 [7]; read-out: TGI): 21.8 µM
GI50 (MDA-MB-231 [7]; read-out: pGI50 (converted)): 4.07 µM
CC50 (MDA-MB-231 [7]; [18]): 70.8 µM
TGI (MDA-MB-231 [7]; read-out: pTGI (converted)): 21.9 µM
GI50 (MCF7; read-out: GI50): 3.29 µM
CC50 (MCF7; [17]): > 100 µM
TGI (MCF7; read-out: TGI): > 100 µM
GI50 (MCF7; read-out: pGI50 (converted)): 3.31 µM
CC50 (MCF7; [18]): > 100 µM
TGI (MCF7; read-out: pTGI (converted)): > 100 µM
GI50 (A498; read-out: GI50): 1590 nM
CC50 (A498; [17]): > 100 µM
TGI (A498; read-out: TGI): 14.2 µM
GI50 (A498; read-out: pGI50 (converted)): 1580 nM
CC50 (A498; [18]): > 100 µM
TGI (A498; read-out: pTGI (converted)): 14.1 µM
GI50 (OVCAR-3; read-out: GI50): 4.08 µM
CC50 (OVCAR-3; [17]): 59.1 µM
TGI (OVCAR-3; read-out: TGI): 19 µM
GI50 (OVCAR-3; read-out: pGI50 (converted)): 4.07 µM
CC50 (OVCAR-3; [18]): 58.9 µM
TGI (OVCAR-3; read-out: pTGI (converted)): 19.1 µM
GI50 (M14; read-out: GI50): 6.52 µM
CC50 (M14; [17]): 76.6 µM
TGI (M14; read-out: TGI): 25.2 µM
GI50 (M14; read-out: pGI50 (converted)): 6.46 µM
CC50 (M14; [18]): 75.9 µM
TGI (M14; read-out: pTGI (converted)): 25.1 µM
GI50 (Malme-3M [8]; read-out: GI50): 11.4 µM
CC50 (Malme-3M [8]; [17]): > 100 µM
TGI (Malme-3M [8]; read-out: TGI): 81 µM
GI50 (Malme-3M [8]; read-out: pGI50 (converted)): 11.5 µM
CC50 (Malme-3M [8]; [18]): > 100 µM
TGI (Malme-3M [8]; read-out: pTGI (converted)): 81.3 µM
growth at 100 µM (T47D): 23%
growth at 100 µM [9]: -10%
growth at 100 µM (UO-31 [10]): -13%
growth at 100 µM (OVCAR-4): 10%
growth at 100 µM (IGROV-1 [11]): -23%
growth at 100 µM (SNB-75): -31%
growth at 100 µM (SNB-19): 7%
growth at 100 µM (SF-539): -50%
growth at 100 µM (KM12 [12]): -69%
growth at 1 µM (MDA-MB-231 [13]): 76%
growth at 1 µM (UO-31 [14]): 82%
growth at 1 µM (TK-10): 98%
growth at 1 µM (786-0): 92%
growth at 1 µM (IGROV-1 [15]): 98%
growth at 1 µM (UACC-62): 73%
growth at 1 µM (Malme-3M [16]): 91%
growth at 1 µM (SR): 95%
growth at 0.1 µM (BT-549): 109%
growth at 0.1 µM (RXF 393): 94%
growth at 0.1 µM (OVCAR-8): 96%
growth at 0.1 µM (OVCAR-5): 91%
growth at 0.01 µM (PC-3): 96%
